Measurements reported in patent US10351621B2, “Anti-histone therapy in acute kidney injury” (Immunomedics, Inc., priority 2014, dated 2019).
“Also recorded” adds a separate entry of the source.

Legend:
[1] = test system: glomerular endothelial cells, podocytes, and parietal epithelial cells; assay: Histone killing of glomerular cells (summary); format: cell-based, mouse; conditions: histones from calf thymus or released by neutrophils undergoing NETosis
Procedure: Mouse glomerular endothelial cells (GEnC (46)), podocytes (47)), and parietal epithelial cells (PECs, (48)) were cultured in 96 well plates with RPMI media without FCS and PS and allowed to adhere overnight. The cells were stimulated with the different concentrations of total calf thymus histones (10, 20, 30, 40, 50 and 100 μg/ml) with or without histone antibody for another 18-20 h. Cytotoxicity assay was performed using Promega CELLTITER 96® non-radioactive cell proliferation assay (MTT Assay Kit, Mannheim, Germany). Glomerular cells were also incubated with histones with or without anti-histone IgG, heparin and/or aPC. LDH assay using cytotoxicity detection kit (Roche Diagnostics, Mannheim, Germany) was used to assess cell death.

PECs = assay: Histone-induced activation of parietal epithelial cells; format: cell-based, mouse
Text: Mitogenic plasma proteins leaking from injured glomerular capillaries cause PEC hyperplasia and glomerular crescent formation (Ryu et al., 2012, J Pathol 228:482; Smeets et al., 2009, J Am Soc Nephrol 20:2593; Smeets et al., 2009, J Am Soc Nephrol 20:2604).
Previous reports documented that heparin and recombinant activated protein C (aPC) also block histone toxicity (Xu et al., 2009, Nat Med 15:1318; Wildhagen et al., 2013, Blood 123:1098). […] Thus, extracellular histones activate PECs in a TLR2/4-dependent manner, a process that may act synergistically with other triggers of PEC hyperplasia during crescent formation and that can be blocked by anti-histone IgG, aPC or heparin.

glomeruli = assay: Histone toxicity on glomeruli ex vivo; format: cell-based, mice
Text: Whether glomerular toxicity of extracellular histones is TLR2/4-dependent is not clear. To answer this question we exposed glomeruli isolated from wild type and Tlr2/4-deficient mice to histones ex vivo. […] We also studied the effects of extracellular histones on glomeruli in vivo. Because intravenous histone injection kills mice immediately by pulmonary microvascular injury (Xu et al., 2009, Nat Med 15:1318), we injected histones directly into the left renal artery in anaesthetized mice. Unilateral histone injection caused glomerular lesions within 24 hours ranging from minor endothelial fibrinogen positivity to thrombotic microangiopathy and global glomerular necrosis (not shown). The contralateral kidney remained unaffected (not shown).

[2] = test system: GBM antiserum-induced glomerulonephritis in mice; assay: Anti-GBM nephritis model, delayed onset of treatment (established disease); format: in vivo
Procedure: C57BL/6 mice were procured from Charles River (Sulzfeld, Germany). 6-8 week old mice received an intravenous injection of 100 μl of anti-GBM serum (sheep anti-rat glomeruli basement membrane serum procured from Probetex INC, PTX-001). Urine samples were collected at different time points after antiserum injection to evaluate the functional parameters of kidney damage. On day 7 the mice were sacrificed by cervical dislocation to collect plasma and kidney tissue. Kidneys were kept at −80° C. for protein isolation and in RNALATER® solution at −20° C. for RNA isolation. A part of the kidney was also kept in formalin to be embedded in paraffin for histological analysis (Teixeira et al., 2005, Kidney Int 67:514B). We treated groups of mice either with 20 mg/kg, i.p. control IgG or anti-histone antibody (clone BWA-3) to neutralize the effects of extracellular histones.
Renal sections of 2 μm were stained with periodic acid-Schiff reagent. Glomerular abnormalities were scored in 50 glomeruli per section by a blinded observer. The following criteria were assessed in each of the 50 glomeruli and scored as segmental or global lesions if less or more than 50% of the glomerular tuft were affected by focal necrosis and capsule adhesions. Cellular crescents were assessed separately when more than a single layer of PECs were present around the inner circumference of Bowman' s capsule. Immunostaining was performed as described using the following primary antibodies: for WT-1/nephrin, neutrophils (Serotec, Oxford, UK), Mac-2 (Cedarlane, Ontario, Canada), TNF-α (Abcam, Cambridge, UK) and fibrinogen (Abcam, Cambridge, UK). Stained glomerular cells were quantified in 50 glomeruli per section.
We mext examined whether histone neutralization could be therapeutic in established disease. […] In another series of experiments we initiated anti-histone IgG, heparin, and aPC treatments 24 hours after GBM antiserum injection, a time point where massive proteinuria and elevated BUN were already established (not shown). […]

[3] = in vivo; cited from earlier work
[4] = test system: RII and RI isoforms of PKA; conditions: Gold et al. 2006; cited from earlier work
human neutrophils = assay: In vitro NET formation in neutrophils stimulated by PMA or necrotic TCs media; format: cell-based; conditions: PAD inhibitor 200 μM; PMA 25 nM or necrotic TCs media
Procedure: Neutrophils were isolated from human healthy volunteers using standard dextran sedimentation followed by Ficoll-Hypaque density centrifugation procedures (Brinkmann et al., 2004, Science 303:1532-1535). Blood donors provided written informed consent forms approved by the local ethical committee. Neutrophils were suspended in RPMI medium (2×10^5˜2×10^6 cell/ml) and seeded into 8-well microns slides or 12˜96-well plates (Ibidi, Martinsried, Germany) in a 5% carbon dioxide atmosphere at 37° C. for 30 minute before stimulation. The neutrophils were placed in normal or hypoxia condition (1% oxygen) for 3, 6, or 24 hours, or stimulated by Phorbol 12-myristate 13-acetate (PMA, 25 nM, Sigma-Aldrich), total calf thymus histones (10, 50, or 100 μg/ml), and necrotic conditioned media from TCs (control, hypoxia, H2O2 stimulation) for 3-4 hours. […]
(§1) In human neutrophil experiments, NETs were quantified by the MPO-DNA sandwich ELISA method using anti-DNA abs (Roche, Mannheim, Germany) and anti-human MPO abs (AbD Serotec) as described (Nakazawa, 2014, J Am Soc Nephrol 25:990-7). In mouse neutrophils experiments, BAL NETs (undiluted) and plasma NETs (×2 diluted in PBS) were evaluated by NE-DNA complex using anti-DNA abs and anti-mouse NE abs (Santa Cruz) as described (Sayah et al., 2015, Am J Respir Crit Care Med 191:455-63). The CitH3 positive NETs were quantified using ImageJ software.

HK-2 cells = assay: NETs cytotoxicity to TCs (conditioned NETs media, LDH assay); format: cell-based, human; conditions: 20 h after addition; neutrophils pre-treated with PAD inhibitor 200 μM
Procedure: Neutrophils were stimulated by PMA, histones, or necrotic TCs derived conditioned media and 3 hours after incubation the supernatant was replaced with fresh media (RPMI), and the bottom NETs were collected to avoid the contamination of the media with exogenous PMA or necrotic TCs or histones as previously described (Najmeh et al., 2015, J Vis Exp 16:98). After centrifugation (1200 rpm, 5 min), the supernatants were applied to TCs (1:1). At 20 hours after addition of conditioned NETs media, TCs injury was evaluated by LDH assay. To investigate whether the formed NETs affect fresh neutrophils, conditioned NETs media was applied to fresh neutrophils and 4 h after incubation, additional NET formation in fresh neutrophils was evaluated by immunostaining.
A cell death detection (TUNEL) kit (Roche) was used to quantify dead cells in accordance with the manufacturer's instructions. Systemic dead cell derived DNAs in plasma were quantified by PICOGREEN® dsDNA assay kit (Thermo Fisher Scientific). In vitro, cytotoxicity was evaluated by LDH assay (Roche).

[5] = test system: bilateral IRI kidney mice; assay: Bilateral IRI kidney model mice (post-ischemic AKI); format: in vivo; conditions: ischemia 35 min, reperfusion 24 h
Procedure: C57BL/6N male mice were procured from Charles River Laboratories (Sulzfeld, Germany). 6-8 week-old mice (N=5-14) were anesthetized before renal pedicle clamping (unilateral: 15, 25, 35, or 45 min) with a microaneurysm clamp via flank incisions (Medicon, Tuttlingen, Germany). Body temperature was maintained at between 37° C. and 38° C. throughout the procedure by placing the mice on a heating pad. After clamp removal, recovery of blood flow to the kidney was confirmed as evidenced by returning to its original color, before closing the wound. To maintain fluid balance, all mice were supplemented with 0.5 ml of 0.9% NaCl administered peritoneally. Mice were killed after 0 min, 15 min, 30 min, 6 h, 12 h, 15 h, 24 h, 2 d, 3 d, 7 d and 10 days after surgery. Bilateral IRI mice (ischemia 35 min, reperfusion 24 h) were treated with PAD inhibitor (20 mg/kg, intraperitoneal injection; i.p: CALBIOCHEM®), anti-histone IgGs (20 mg/kg, i.p; clone BWA3; IMMUNOMEDICS®, Morris Plains, N.J.), necrosis inhibitor combination (Necrostatinl/Enzo 1.65 mg/kg i.p, Ferrostatin/CALBIOCHEM®, 2 mg/kg i.p, Ciclosporin/Novartis 10 mg/kg, i.v) 2 hours before IRI surgery. Neutrophil depletion was performed as described previously (Huang et al., 2015, Hepatology 62:600-14) with an i.p. injection of 500 μg anti-Ly6G IgGs (1A8) (BIOXCELL®) or control IgGs 24 and 2 hours before IRI surgery.
For immunofluorescence, the tissues after sacrifice were fixed with 4% paraformaldehyde for 2 hours, dehydrated with 30% sucrose for 24 hours at 4° C., frozen in OCT (TISSUE-TEK®, OCT compounds, SAKURA®) and cryosectioned (5 μm thick). The CitH3 positive NETs and TUNEL positive necrotic cells were quantified using ImageJ software.
For immunostaining, rat anti-mouse Ly6b (neutrophils) ab (AbD Serotec, Oxford, United Kingdom), rabbit citrullinated histone 3 ab (Abcam, Cambridge, United Kingdom), or goat anti neutrophil elastase ab (Santa Cruz Biotechnology, USA) were used. To count the positive cells, 3 high-power fields (100×) were analyzed. BUN and creatinine were measured using urea or creatinine FS kits (DiaSys Diagnostic Systems, Holzheim, Germany) according to the manufacturer's protocols. Mice plasma was analysed for IL-6 and TNF cytokine secretion by ELISA (BD Pharmingen, San Diego, Calif.). Plasma histone was analyzed by western blotting. To prepare a control model with high concentration of histone, lipopolysaccharide (LPS, 20 mg/kg, i.p) was injected into WT mice (8 weeks age, male), and blood samples were taken 6 hours after LPS injection (Li et al., 2011, Surgery 150:442-51). Bronchoalveolar lavage fluid (BAL) in IRI mice was performed as previously described (Sayah et al., 2015, Am J Respir Crit Care Med 191:455-63). The BAL cell number and supernatant NETs were evaluated by cell counter and NE-DNA complexes ELISA, respectively.
as §1

[6] = test system: IRI-induced kidney damage; conditions: chemical inhibitors of necroptosis, ferroptosis, MPT-RN; cited from earlier work
DDD of PKA = DDD of PKA (Homo sapiens, UniProt P13861); conditions: cited from earlier work
Chain of DDD of PKA (P13861 2-45 limits assumed): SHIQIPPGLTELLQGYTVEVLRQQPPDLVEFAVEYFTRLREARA

heparin
killing of glomerular cells by histones / extracellular histone toxicity in vitro [1]: prevented | PEC activation by histones (PECs): protective effect | histone toxicity on glomeruli ex vivo (glomeruli): completely blocked | renal dysfunction and structural injury during severe GN ([2]; delayed onset of histone blockade): protects | severe glomerulonephritis in mice with established disease ([2]; mouse, in vivo): abrogated | all aspects of GBM antiserum-induced severe GN ([2]; pre-emptive as well as delayed onset of histone neutralization): abrogates

veltuzumab: humanized IgG1 antibody against CD20
immunogenicity in subjects compared with rituximab [3]: less immunogenic

SuperAKAP-IS: SEQ ID NO:30 QIEYVAKQIVDYAIHQA
selectivity for the RII isoform of PKA compared with the RI isoform [4]: five order of magnitude higher

NC(=O)[C@H](CCCN=C(N)CCl)NC(=O)c1ccccc1 [PAD inhibitor, Cl-amidine]
induced NET formation in neutrophils (MPO-DNA complex of supernatants) (human neutrophils): abrogated | tubular cell injury by conditioned NETs media (LDH assay) (HK-2 cells): abrogated; also recorded: reduced the damage of TCs | NET components in plasma [5]: substantially reduced | expression of AKI marker genes [5]: significantly reduced | renal function (plasma creatinine, plasma urea) [5]: significantly reduced | tissue necrotic area / tubular necrosis ([5]; PAS and TUNEL staining): significantly reduced | protective effect on IRI kidney (overall) ([5]; listed as NET inhibitor): ameliorates | protective effect on IRI kidney (overall) ([5]; listed as inhibitor of NET formation): protected | abundance of NETs in the post-ischemic kidney ([5]; treated before surgery): substantially reduced

CN1C(=O)C(Cc2c[nH]c3ccccc23)NC1=S (stereo not shown) [necrostatin 1]
kidney injury [6]: did not completely prevent

RII selective AD sequence, SEQ ID NO:21 QIEYLAKQIVDNAIQQA [AKAP-IS]
Kd (DDD of PKA; Alto et al. 2003, read-out: binding constant for DDD): 400 pM | affinity for the MI DDD sequence (DDD of PKA; Hundsrucker et al. 2006): particularly high affinities

CC[C@H]1C[C@H](C)[C@@]2(NC1=O)O[C@@H](C[C@H](O)[C@@H](C)CC/C=C/C=C(\C)[C@@H]1C/C=C/C=C/[C@H](O)[C@H](C)[C@@H](O)[C@@H](CCC(C)=O)C(=O)N[C@@H](C(C)C)C(=O)N[C@@H](Cc3cccc(O)c3)C(=O)N3CCC[C@H](N3)C(=O)O1)[C@H](C)[C@H](O)[C@@H]2C [sanglifehrin A]
kidney injury [6]: did not completely prevent

CCOC(=O)c1ccc(NC2CCCCC2)c(N)c1 [ferrostatin 1]
kidney injury [6]: did not completely prevent
